Measured values published in ChEMBL document CHEMBL5335863, “Design, Synthesis, and Evaluation of 8-(o-Tolyl)quinazoline Derivatives as Small-Molecule PD-1/PD-L1 Antagonists” (ACS Med Chem Lett, 2024).

Assays:
[1] = target: T1, Programmed cell death protein 1/Programmed cell death 1 ligand 1 (Homo sapiens, UniProt Q15116+Q9NZQ7); experiment: Inhibition of PD-1/PD-L1 interaction (unknown origin) incubated for 60 min by HTRF assay; format: protein-complex assay
Jurkat = experiment: Cytotoxicity against human Jurkat cells assessed as reduction in cell viability at 3.3 uM incubated for 48 hrs by CCK-8 assay; format: toxicity, cell-based
[2] = target: T1, Programmed cell death protein 1/Programmed cell death 1 ligand 1; experiment: Inhibition of PD-1/PD-L1 interaction in co-culture of Jurkat-NFAT-PD-1 cells expressing PD-1 and reporter gene and Hep3B-OS8-hPD-L1 cells expressing OS-8 and human PD-L1 assessed as increase in luminescence intensity incubated for 6 hrs by luminometry; details: dose 0.4-1.11 µM

T1 sequence (Q15116 whole entry): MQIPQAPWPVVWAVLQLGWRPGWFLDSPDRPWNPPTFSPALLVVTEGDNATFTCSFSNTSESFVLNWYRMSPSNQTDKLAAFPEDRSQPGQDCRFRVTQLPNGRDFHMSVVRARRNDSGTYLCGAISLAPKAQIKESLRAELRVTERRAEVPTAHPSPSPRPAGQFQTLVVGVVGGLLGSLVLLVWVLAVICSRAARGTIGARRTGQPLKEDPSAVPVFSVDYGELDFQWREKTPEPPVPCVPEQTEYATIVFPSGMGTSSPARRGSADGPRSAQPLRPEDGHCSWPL
T1 sequence (Q9NZQ7 whole entry): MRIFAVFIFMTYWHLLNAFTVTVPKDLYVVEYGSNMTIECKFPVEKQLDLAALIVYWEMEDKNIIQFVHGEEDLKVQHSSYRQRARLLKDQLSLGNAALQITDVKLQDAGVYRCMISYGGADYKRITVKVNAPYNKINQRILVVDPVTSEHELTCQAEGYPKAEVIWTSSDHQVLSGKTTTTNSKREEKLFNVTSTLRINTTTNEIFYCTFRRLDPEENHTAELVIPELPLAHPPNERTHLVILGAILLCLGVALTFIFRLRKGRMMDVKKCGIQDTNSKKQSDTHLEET

SMILES | IC50 [1] [nM] | Activity (Jurkat) | inhibition [2]
CC(CO)(CO)NCc1cc(Cl)c(Oc2ncnc3c(-c4ccc5c(c4)OCCO5)cccc23)cc1OCc1cccc(C#N)c1 | 40.8 | – | –
Cc1c(COc2cc(OCc3cccc(C#N)c3)c(CNC(CO)CO)cc2Cl)cccc1-c1cccc2c(Oc3cc(OCc4cccc(C#N)c4)c(CNC(CO)CO)cc3Cl)ncnc12 | 47.2 | – | –
Cc1c(COc2cc(OCc3cccc(C#N)c3)c(CN3CC[C@H](O)C3)cc2Cl)cccc1-c1cccc2c(Oc3cc(OCc4cccc(C#N)c4)c(CN4CC[C@H](O)C4)cc3Cl)ncnc12 | 55.5 | – | –
Cc1c(COc2cc(OCc3cccc(C#N)c3)c(CNC3CCCC3)cc2Cl)cccc1-c1cccc2c(Oc3cc(OCc4cccc(C#N)c4)c(CNC4CCCC4)cc3Cl)ncnc12 | 112 | – | –
Cc1c(COc2cc(OCc3cccc(C#N)c3)c(CNCCO)cc2Cl)cccc1-c1cccc2c(Oc3cc(OCc4cccc(C#N)c4)c(CNCCO)cc3Cl)ncnc12 | 37.7 | – | –
Cc1c(Nc2nccc3cc(CN4CC[C@H](O)C4)cnc23)cccc1-c1cccc(-c2nc3cc(CN4CC[C@H](C(=O)O)C4)cc(C#N)c3o2)c1C | 12.1 | – | –
CCNCc1cc(Cl)c(OCc2cccc(-c3cccc4c(Oc5cc(OCc6cccc(C#N)c6)c(CNCC)cc5Cl)ncnc34)c2C)cc1OCc1cccc(C#N)c1 | 48.5 | – | –
Cc1c(COc2cc(OCc3cccc(C#N)c3)c(CNC3CCCCC3)cc2Cl)cccc1-c1cccc2c(Oc3cc(OCc4cccc(C#N)c4)c(CNC4CCCCC4)cc3Cl)ncnc12 | 167 | – | –
Cc1c(COc2cc(OCc3cccc(C#N)c3)c(CNC3CCOCC3)cc2Cl)cccc1-c1cccc2c(Oc3cc(OCc4cccc(C#N)c4)c(CNC4CCOCC4)cc3Cl)ncnc12 | 59.7 | – | –
Cc1c(COc2cc(OCc3cccc(C#N)c3)c(C=O)cc2Cl)cccc1-c1cccc2c(Oc3cc(OCc4cccc(C#N)c4)c(C=O)cc3Cl)ncnc12 | > 1000 | – | –
Cc1c(COc2cc(OCc3cccc(C#N)c3)c(CNC(C)(CO)CO)cc2Cl)cccc1-c1cccc2c(Oc3cc(OCc4cccc(C#N)c4)c(CNC(C)(CO)CO)cc3Cl)ncnc12 | 30.2 | – | –
Cc1c(COc2cc(OCc3cccc(C#N)c3)c(CNC3CC3)cc2Cl)cccc1-c1cccc2c(Oc3cc(OCc4cccc(C#N)c4)c(CNC4CC4)cc3Cl)ncnc12 | 390 | – | –
Cc1c(COc2cc(OCc3cccc(C#N)c3)c(CN(C)CCO)cc2Cl)cccc1-c1cccc2c(Oc3cc(OCc4cccc(C#N)c4)c(CN(C)CCO)cc3Cl)ncnc12 | 44.8 | – | –
CC(=O)NCCNCc1cc(Cl)c(OCc2cccc(-c3cccc4c(Oc5cc(OCc6cccc(C#N)c6)c(CNCCNC(C)=O)cc5Cl)ncnc34)c2C)cc1OCc1cccc(C#N)c1 | 61.4 | – | –
COCCNCc1cc(Cl)c(OCc2cccc(-c3cccc4c(Oc5cc(OCc6cccc(C#N)c6)c(CNCCOC)cc5Cl)ncnc34)c2C)cc1OCc1cccc(C#N)c1 | 101 | – | –
Cc1c(COc2cc(OCc3cccc(C#N)c3)c(CO)cc2Cl)cccc1-c1cccc2c(Oc3cc(OCc4cccc(C#N)c4)c(CO)cc3Cl)ncnc12 | > 1000 | – | –
Cc1c(COc2cc(OCc3cccc(C#N)c3)c(CNC[C@@H](O)CO)cc2Cl)cccc1-c1cccc2c(Oc3cc(OCc4cccc(C#N)c4)c(CNC[C@@H](O)CO)cc3Cl)ncnc12 | 23.8 | Non-Toxic | Dose-Dependent Effect
Cc1c(COc2cc(OCc3cccc(C#N)c3)c(CNC(C)C)cc2Cl)cccc1-c1cccc2c(Oc3cc(OCc4cccc(C#N)c4)c(CNC(C)C)cc3Cl)ncnc12 | 51.5 | – | –
Cc1c(COc2cc(OCc3cccc(C#N)c3)c(CN3CCC(O)CC3)cc2Cl)cccc1-c1cccc2c(Oc3cc(OCc4cccc(C#N)c4)c(CN4CCC(O)CC4)cc3Cl)ncnc12 | 75.8 | – | –
Cc1c(COc2cc(OCc3cccc(C#N)c3)c(CNC(CO)(CO)CO)cc2Cl)cccc1-c1cccc2c(Oc3cc(OCc4cccc(C#N)c4)c(CNC(CO)(CO)CO)cc3Cl)ncnc12 | 25.3 | – | –
Cc1c(COc2cc(OCc3cccc(C#N)c3)c(CNC[C@H](O)CO)cc2Cl)cccc1-c1cccc2c(Oc3cc(OCc4cccc(C#N)c4)c(CNC[C@H](O)CO)cc3Cl)ncnc12 | 33.9 | – | –
Cc1c(COc2cc(OCc3cccc(C#N)c3)c(CNC3CCC3)cc2Cl)cccc1-c1cccc2c(Oc3cc(OCc4cccc(C#N)c4)c(CNC4CCC4)cc3Cl)ncnc12 | 105 | – | –
Cc1c(COc2cc(OCc3cccc(C#N)c3)c(CN3CC[C@@H](O)C3)cc2Cl)cccc1-c1cccc2c(Oc3cc(OCc4cccc(C#N)c4)c(CN4CC[C@@H](O)C4)cc3Cl)ncnc12 | 46.2 | – | –
